Experimental data: article PMC3502418 (2012)

How the values were obtained:
[1] = system: mismatched DNA (DNA1, X = T, Y = C) (DNA, mismatch bulge abasic) ATGGTGTTTGCAGCG/CGCTGCACACACCAT; assay: fluorescence enhancement at 586 nm; details: 0.1 M phosphate, pH 8.3 presumed; 5 µM SG; up to 5 µM DNA; weaker than DNA1-C
[2] = system: DNA1-T (DNA, mismatch bulge abasic, abasic site (dSpacer, tetrahydrofuran residue) at X, opposite T, flanked by T; position in Figure 1B) ATGGTGTNTGCAGCG/CGCTGCATACACCAT; assay: UV melting at 260 nm; details: 0.1 M phosphate, 1 mM EDTA, pH 8.3 or 7.0 (unclear); 5 µM SG, 5 µM DNA
[3] = system: DNA3-G (DNA, mismatch bulge abasic, abasic site (dSpacer, tetrahydrofuran residue) at X, opposite G, flanked by G; position in Figure 1B) ATGGTGGNGGCAGCG/CGCTGCCGCCACCAT; assay: UV melting at 260 nm; details: 0.1 M phosphate, 1 mM EDTA, pH 8.3 or 7.0 (unclear); 5 µM SG, 5 µM DNA
[4] = system: DNA2-A (DNA, mismatch bulge abasic, abasic site (dSpacer, tetrahydrofuran residue) at X, opposite A, flanked by A; position in Figure 1B) ATGGTGANAGCAGCG/CGCTGCTATCACCAT; assay: UV melting at 260 nm; details: 0.1 M phosphate, 1 mM EDTA, pH 8.3 or 7.0 (unclear); 5 µM SG, 5 µM DNA
[5] = system: DNA3-T (DNA, mismatch bulge abasic, abasic site (dSpacer, tetrahydrofuran residue) at X, opposite T, flanked by G; position in Figure 1B) ATGGTGGNGGCAGCG/CGCTGCCTCCACCAT; assay: UV melting at 260 nm; details: 0.1 M phosphate, 1 mM EDTA, pH 8.3 or 7.0 (unclear); 5 µM SG, 5 µM DNA
[6] = system: DNA4-C (DNA, mismatch bulge abasic, abasic site (dSpacer, tetrahydrofuran residue) at X, opposite C, flanked by C; position in Figure 1B) ATGGTGCNCGCAGCG/CGCTGCGCGCACCAT; assay: UV melting at 260 nm; details: 0.1 M phosphate, 1 mM EDTA, pH 8.3 or 7.0 (unclear); 5 µM SG, 5 µM DNA
[7] = system: DNA1-C (DNA, mismatch bulge abasic, abasic site (dSpacer, tetrahydrofuran residue) at X, opposite C, flanked by T; position in Figure 1B) ATGGTGTNTGCAGCG/CGCTGCACACACCAT; assay: fluorescence titration (586 nm), Scatchard; details: 0.1 M phosphate, 1 mM EDTA; pH 8.3 presumed; 1 µM SG; strongest site only
[8] = system: DNA1-A (DNA, mismatch bulge abasic, abasic site (dSpacer, tetrahydrofuran residue) at X, opposite A, flanked by T; position in Figure 1B) ATGGTGTNTGCAGCG/CGCTGCAAACACCAT; assay: UV melting at 260 nm; details: 0.1 M phosphate, 1 mM EDTA, pH 8.3 or 7.0 (unclear); 5 µM SG, 5 µM DNA
[9] = system: DNA1-G (DNA, mismatch bulge abasic, abasic site (dSpacer, tetrahydrofuran residue) at X, opposite G, flanked by T; position in Figure 1B) ATGGTGTNTGCAGCG/CGCTGCAGACACCAT; assay: UV melting at 260 nm; details: 0.1 M phosphate, 1 mM EDTA, pH 8.3 or 7.0 (unclear); 5 µM SG, 5 µM DNA
[10] = system: DNA4-G (DNA, mismatch bulge abasic, abasic site (dSpacer, tetrahydrofuran residue) at X, opposite G, flanked by C; position in Figure 1B) ATGGTGCNCGCAGCG/CGCTGCGGGCACCAT; assay: UV melting at 260 nm; details: 0.1 M phosphate, 1 mM EDTA, pH 8.3 or 7.0 (unclear); 5 µM SG, 5 µM DNA
[11] = system: DNA2-C (DNA, mismatch bulge abasic, abasic site (dSpacer, tetrahydrofuran residue) at X, opposite C, flanked by A; position in Figure 1B) ATGGTGANAGCAGCG/CGCTGCTCTCACCAT; assay: UV melting at 260 nm; details: 0.1 M phosphate, 1 mM EDTA, pH 8.3 or 7.0 (unclear); 5 µM SG, 5 µM DNA

C[n+]1cc2c3c(ccc2c2ccc4cc5c(cc4c21)OCO5)OCO3
binding [1]: yes | ΔT [2]: 3.8 °C | ΔT [3]: 2.4 °C | ΔT [4]: 3.0 °C | ΔT [5]: 5.7 °C | ΔT [6]: 5.2 °C | binding constant [7]: 1.7±0.15×10^7 M^−1 | ΔT [8]: 1.9 °C | ΔT [9]: 1.9 °C | ΔT [10]: 2.4 °C | ΔT [11]: 5.4 °C
